{"source": "paper PMC2778250", "about": "(Journal of medicinal chemistry, 2009)", "key": {"[1]": {"target": "LcrF (Yersinia pestis, UniProt P28808)", "sequence (P28808 whole entry, looked up)": "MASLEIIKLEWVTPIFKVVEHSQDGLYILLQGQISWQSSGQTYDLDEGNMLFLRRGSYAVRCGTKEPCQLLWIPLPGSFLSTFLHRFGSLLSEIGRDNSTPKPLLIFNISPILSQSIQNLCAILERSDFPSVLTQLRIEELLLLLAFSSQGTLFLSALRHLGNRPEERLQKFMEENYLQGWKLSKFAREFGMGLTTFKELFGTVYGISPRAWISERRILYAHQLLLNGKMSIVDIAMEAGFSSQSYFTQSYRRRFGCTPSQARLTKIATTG", "experiment": "biochemical", "format": "binding", "details": "for IC50: LcrF IC50"}, "[2]": {"target": "T1, SlyA (Salmonella typhimurium, UniProt P40676)", "T1 sequence (P40676 1-144)": "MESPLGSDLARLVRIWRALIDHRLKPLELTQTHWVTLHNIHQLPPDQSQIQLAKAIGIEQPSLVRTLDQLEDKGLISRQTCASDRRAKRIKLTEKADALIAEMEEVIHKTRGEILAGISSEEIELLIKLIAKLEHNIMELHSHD", "experiment": "biochemical", "format": "binding, Salmonella spp."}, "[3]": {"test_system": "E. coli", "experiment": "In vitro antimicrobial susceptibility test", "format": "cell-based"}, "[4]": {"test_system": "Y. pseudotuberculosis", "format": "cell-based"}, "[5]": {"test_system": "uninfected J774A.1 murine macrophages", "details": "50μg/mL"}, "[6]": {"test_system": "pET-15b supercoiled plasmid DNA", "experiment": "In vitro DNA binding assay", "details": "100 μg/mL; agarose gel electrophoresis"}, "[7]": {"test_system": "S. aureus", "experiment": "In vitro antimicrobial susceptibility test", "format": "cell-based"}, "[8]": {"test_system": "T3SS-dependent Y. pseudotuberculosis killing of macrophages"}}, "data": [{"smiles": "O=C(NCc1ccc(-c2nc3ccc([N+](=O)[O-])cc3n2O)cc1)c1ccc(F)cc1", "note": "[Compound 11, 4-Fluoro-N-[4-(1-hydroxy-6-nitro-1H-benzoimidazol-2-yl)-benzyl]-benzamide]", "values": [{"measurement": "inhibitory activity in LcrF-DNA binding assay (in words)", "setting": "[1]", "result": "no measurable activity"}]}, {"smiles": "O=C(Cc1ccc(F)cc1)Nc1ccc(-c2nc3ccc([N+](=O)[O-])cc3n2O)cc1", "note": "[Compound 12, 2-(4-Fluoro-phenyl)-N-[4-(1-hydroxy-6-nitro-1H-benzoimidazol-2-yl)-phenyl]-acetamide]", "values": [{"measurement": "inhibitory activity in LcrF-DNA binding assay (in words)", "setting": "[1]", "result": "no measurable activity"}]}, {"smiles": "O=C(CCc1ccc(F)cc1)Nc1ccc(-c2nc3ccc([N+](=O)[O-])cc3n2O)cc1", "note": "[Compound 13, 3-(4-Fluoro-phenyl)-N-[4-(1-hydroxy-6-nitro-1H-benzoimidazol-2-yl)-phenyl]-propionamide]", "values": [{"measurement": "inhibitory activity in LcrF-DNA binding assay (in words)", "setting": "[1]", "result": "no measurable activity"}]}, {"smiles": "O=C(/C=C/c1ccc(F)cc1)Nc1ccc(-c2nc3ccc([N+](=O)[O-])cc3n2O)cc1", "note": "[Compound 14, (E)-3-(4-Fluoro-phenyl)-N-[4-(1-hydroxy-6-nitro-1H-benzoimidazol-2-yl)-phenyl]-acrylamide]", "values": [{"measurement": "IC50", "setting": "[2]", "result": "> 53.8", "unit": "µM"}, {"measurement": "antibacterial activity (in words)", "setting": "[3]", "result": "no measurable antibacterial activity"}, {"measurement": "antibacterial activity (in words)", "setting": "[4]", "result": "no measurable antibacterial activity"}, {"measurement": "intrinsic toxicity to uninfected macrophages", "setting": "[5]", "result": "non-cytotoxic"}, {"measurement": "IC50", "setting": "[1]", "result": "≤ 10", "unit": "µM"}, {"measurement": "non-specific DNA binding (effect on plasmid migration)", "setting": "[6]", "result": "non-DNA binding"}, {"measurement": "antibacterial activity (in words)", "setting": "[7]", "result": "no measurable antibacterial activity"}]}, {"smiles": "N#Cc1ccc(/C=C/C(=O)Nc2ccc(-c3nc4ccc([N+](=O)[O-])cc4n3O)cc2)cc1", "note": "[Compound 19]", "values": [{"measurement": "inhibition of Y. pseudotuberculosis cytotoxicity in whole cell assay (in words)", "setting": "[8]", "result": "strongly inhibited cytotoxicity"}]}, {"smiles": "Cc1ccc(/C=C/C(=O)Nc2ccc(-c3nc4ccc([N+](=O)[O-])cc4n3O)cc2)cc1", "note": "[Compound 20, (E)-N-[4-(1-Hydroxy-6-nitro-1H-benzoimidazol-2-yl)-phenyl]-3-p-tolyl-acrylamide]", "values": [{"measurement": "inhibition of Y. pseudotuberculosis cytotoxicity in whole cell assay (in words)", "setting": "[8]", "result": "relatively inactive"}]}, {"smiles": "COc1ccc(/C=C/C(=O)Nc2ccc(-c3nc4ccc([N+](=O)[O-])cc4n3O)cc2)cc1", "note": "[Compound 22, (E)-N-[4-(1-Hydroxy-6-nitro-1H-benzoimidazol-2-yl)-phenyl]-3-(4-methoxy-phenyl)-acrylamide]", "values": [{"measurement": "IC50", "setting": "[2]", "result": "> 55.2", "unit": "µM"}, {"measurement": "antibacterial activity (in words)", "setting": "[3]", "result": "no measurable antibacterial activity"}, {"measurement": "antibacterial activity (in words)", "setting": "[4]", "result": "no measurable antibacterial activity"}, {"measurement": "intrinsic toxicity to uninfected macrophages", "setting": "[5]", "result": "non-cytotoxic"}, {"measurement": "IC50", "setting": "[1]", "result": "≤ 10", "unit": "µM"}, {"measurement": "non-specific DNA binding (effect on plasmid migration)", "setting": "[6]", "result": "non-DNA binding"}, {"measurement": "antibacterial activity (in words)", "setting": "[7]", "result": "no measurable antibacterial activity"}]}, {"smiles": "COc1ccc(/C=C/C(=O)Nc2ccc(-c3nc4ccc([N+](=O)[O-])cc4n3O)cc2)c(OC)c1", "note": "[Compound 24, (E)-3-(2,4-Dimethoxy-phenyl)-N-[4-(1-hydroxy-6-nitro-1H-benzoimidazol-2-yl)-phenyl]-acrylamide]", "values": [{"measurement": "inhibitory activity in LcrF-DNA binding assay (in words)", "setting": "[1]", "result": "loss of activity"}]}, {"smiles": "CC(C)c1ccc(/C=C/C(=O)Nc2ccc(-c3nc4ccc([N+](=O)[O-])cc4n3O)cc2)cc1", "note": "[Compound 25, (E)-N-[4-(1-Hydroxy-6-nitro-1H-benzoimidazol-2-yl)-phenyl]-3-(4-isopropyl-phenyl)-acrylamide]", "values": [{"measurement": "inhibitory activity in LcrF-DNA binding assay (in words)", "setting": "[1]", "result": "loss of activity"}]}, {"smiles": "O=C(/C=C/c1ccc(-n2cnnc2)cc1)Nc1ccc(-c2nc3ccc([N+](=O)[O-])cc3n2O)cc1", "note": "[Compound 27]", "values": [{"measurement": "inhibitory activity in LcrF-DNA binding assay (in words)", "setting": "[1]", "result": "loss of activity"}]}, {"smiles": "O=C(/C=C/c1ccc(-c2c[nH]cn2)cc1)Nc1ccc(-c2nc3ccc([N+](=O)[O-])cc3n2O)cc1", "note": "[Compound 28]", "values": [{"measurement": "inhibitory activity in LcrF-DNA binding assay (in words)", "setting": "[1]", "result": "loss of activity"}]}, {"smiles": "O=C(/C=C/c1ccc(F)cc1)Nc1ccc(-c2nc3ccc([N+](=O)[O-])cc3n2O)nc1", "note": "[Compound 31, (E)-3-(4-Fluoro-phenyl)-N-[6-(1-hydroxy-6-nitro-1H-benzoimidazol-2-yl)-pyridin-3-yl]-acrylamide]", "values": [{"measurement": "inhibition of Y. pseudotuberculosis cytotoxicity in whole cell assay (in words)", "setting": "[8]", "result": "devoid of any measurable activity"}]}, {"smiles": "Cc1cc2nc(-c3ccc(NC(=O)/C=C/c4ccc(F)cc4)cc3)n(O)c2cc1[N+](=O)[O-]", "note": "[Compound 36, (E)-3-(4-Fluoro-phenyl)-N-[4-(1-hydroxy-5-methyl-6-nitro-1H-benzoimidazol-2-yl)-phenyl]-acrylamide]", "values": [{"measurement": "IC50", "setting": "[2]", "result": "> 52", "unit": "µM"}, {"measurement": "antibacterial activity (in words)", "setting": "[3]", "result": "no measurable antibacterial activity"}, {"measurement": "antibacterial activity (in words)", "setting": "[4]", "result": "no measurable antibacterial activity"}, {"measurement": "intrinsic toxicity to uninfected macrophages", "setting": "[5]", "result": "non-cytotoxic"}, {"measurement": "IC50", "setting": "[1]", "result": "≤ 10", "unit": "µM"}, {"measurement": "non-specific DNA binding (effect on plasmid migration)", "setting": "[6]", "result": "non-DNA binding"}, {"measurement": "antibacterial activity (in words)", "setting": "[7]", "result": "no measurable antibacterial activity"}]}, {"smiles": "CN(C)CCN(C)c1cc2nc(-c3ccc(NC(=O)/C=C/c4ccc(F)cc4)cc3)n(O)c2cc1[N+](=O)[O-]", "note": "[Compound 40]", "values": [{"measurement": "non-specific DNA binding (effect on plasmid migration)", "setting": "[6]", "result": "non-specific binding to DNA"}]}, {"smiles": "CCOc1ccc(-c2nc3ccc(-c4nc5ccc(N6CCN(C)CC6)cc5[nH]4)cc3[nH]2)cc1", "note": "[Hoechst 33342, reference compound]", "values": [{"measurement": "non-specific DNA binding (effect on plasmid migration)", "setting": "[6]", "result": "faint smear on the gel"}]}]}
